Experimental data: US9738634B2, “Heterocyclic amide compound and herbicide” (SYNGENTA PARTICIPATIONS AG, priority 2013, dated 2017)

Columns and labels:
Type in all cases: in vivo
[1] = system: soybean; assay: Test Example 3: soil treatment, effect on crop; d: soybean; conditions: soil treatment, treatment dosage 320 g/ha
Summary of the method: (§1)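 Crop and weed responses were judged three weeks after a uniform surface spray of the water-diluted emulsion at the given g/ha rate. Seeds sat beneath about 1.5 cm of sterilized diluvial soil, and boxes stood in a greenhouse at 25 to 30° C.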

[2] = system: directly sown rice; assay: Test Example 3: soil treatment, effect on crop; b: directly sown rice; conditions: soil treatment, treatment dosage 320 g/ha
Summary of the method: as §1

[3] = system: oval-leafed pondweed; assay: Test Example 2: weedkilling efficacy, growth period weed treatment in the submerged state; C: oval-leafed pondweed; conditions: treatment dosage 320 g/ha
Summary of the method: (§2)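 Barnyard grass, bulrush and oval-leafed pondweed sown in alluvial soil under 4 cm flooding, greenhouse 25 to 30° C. At 1-2 leaf stage, water-diluted emulsion applied to the water surface at stated g/ha dosages; effects scored 3 weeks later.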

[4] = system: bulrush; assay: Test Example 1: weedkilling efficacy, preemergent weed treatment in the submerged state; B: bulrush; conditions: treatment dosage 320 g/ha
Summary of the method: (§3)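 Visual scores against set criteria were taken 3 weeks after treatment. Compounds, as diluted emulsions at specified g/ha, went onto the water surface of 4 cm-flooded alluvial soil pots on the day weeds were sown and 2.5-leaf rice was transplanted; greenhouse held 25–30 °C.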

[5] = system: barnyard grass; assay: Test Example 1: weedkilling efficacy, preemergent weed treatment in the submerged state; A: barnyard grass; conditions: treatment dosage 320 g/ha
Summary of the method: as §3

[6] = system: Italian ryegrass; assay: Test Example 3: weedkilling efficacy through soil treatment; I: Italian ryegrass; conditions: soil treatment, treatment dosage 320 g/ha
Summary of the method: as §1

[7] = system: black-grass; assay: Test Example 3: weedkilling efficacy through soil treatment; H: black-grass; conditions: soil treatment, treatment dosage 320 g/ha
Summary of the method: as §1

[8] = system: wild oat; assay: Test Example 3: weedkilling efficacy through soil treatment; G: wild oat; conditions: soil treatment, treatment dosage 320 g/ha
Summary of the method: as §1

[9] = system: wheat; assay: Test Example 3: soil treatment, effect on crop; e: wheat; conditions: soil treatment, treatment dosage 320 g/ha
Summary of the method: as §1

[10] = system: catchweed; assay: Test Example 3: weedkilling efficacy through soil treatment; O: catchweed; conditions: soil treatment, treatment dosage 320 g/ha
Summary of the method: as §1

[11] = system: oval-leafed pondweed; assay: Test Example 1: weedkilling efficacy, preemergent weed treatment in the submerged state; C: oval-leafed pondweed; conditions: treatment dosage 320 g/ha
Summary of the method: as §3

[12] = system: common wind-grass; assay: Test Example 3: weedkilling efficacy through soil treatment; J: common wind-grass; conditions: soil treatment, treatment dosage 320 g/ha
Summary of the method: as §1

[13] = system: birds-eye speedwell; assay: Test Example 3: weedkilling efficacy through soil treatment; p: birds-eye speedwell; conditions: soil treatment, treatment dosage 320 g/ha
Summary of the method: as §1

[14] = system: crabgrass; assay: Test Example 3: weedkilling efficacy through soil treatment; D: crabgrass; conditions: soil treatment, treatment dosage 320 g/ha
Summary of the method: as §1

[15] = system: transplanted rice; assay: Test Example 1: preemergent weed treatment in the submerged state, effect on crop; a: transplanted rice; conditions: treatment dosage 320 g/ha
Summary of the method: as §3

[16] = system: redroot pigweed; assay: Test Example 3: weedkilling efficacy through soil treatment; L: redroot pigweed; conditions: soil treatment, treatment dosage 320 g/ha
Summary of the method: as §1

[17] = system: green foxtail; assay: Test Example 3: weedkilling efficacy through soil treatment; E: green foxtail; conditions: soil treatment, treatment dosage 320 g/ha
Summary of the method: as §1

[18] = system: chickweed; assay: Test Example 3: weedkilling efficacy through soil treatment; N: chickweed; conditions: soil treatment, treatment dosage 320 g/ha
Summary of the method: as §1

[19] = system: corn; assay: Test Example 3: soil treatment, effect on crop; c: corn; conditions: soil treatment, treatment dosage 320 g/ha
Summary of the method: as §1

[20] = system: fig-leafed goosefoot; assay: Test Example 3: weedkilling efficacy through soil treatment; M: fig-leafed goosefoot; conditions: soil treatment, treatment dosage 320 g/ha
Summary of the method: as §1

[21] = system: barnyard grass; assay: Test Example 2: weedkilling efficacy, growth period weed treatment in the submerged state; A: barnyard grass; conditions: treatment dosage 320 g/ha
Summary of the method: as §2

[22] = system: barnyard grass; assay: Test Example 3: weedkilling efficacy through soil treatment; F: barnyard grass; conditions: soil treatment, treatment dosage 320 g/ha
Summary of the method: as §1

[23] = system: Indian mallow; assay: Test Example 3: weedkilling efficacy through soil treatment; K: Indian mallow; conditions: soil treatment, treatment dosage 320 g/ha
Summary of the method: as §1

[24] = system: rapeseed; assay: Test Example 3: soil treatment, effect on crop; g: rapeseed; conditions: soil treatment, treatment dosage 320 g/ha
Summary of the method: as §1

[25] = system: bulrush; assay: Test Example 2: weedkilling efficacy, growth period weed treatment in the submerged state; B: bulrush; conditions: treatment dosage 320 g/ha
Summary of the method: as §2

[26] = system: beet; assay: Test Example 3: soil treatment, effect on crop; f: beet; conditions: soil treatment, treatment dosage 320 g/ha
Summary of the method: as §1

Row | Compound | d: soybean, effect on crop grade [1] | b: directly sown rice, effect on crop grade [2] | C (oval-leafed pondweed) weedkilling efficacy grade [3] | B: bulrush, weed kill grade [4] | A: barnyard grass, weed kill grade [5] | I: Italian ryegrass, weedkilling efficacy grade [6] | H: black-grass, weedkilling efficacy grade [7] | G: wild oat, weedkilling efficacy grade [8] | e: wheat, effect on crop grade [9] | O: catchweed, weedkilling efficacy grade [10] | C: oval-leafed pondweed, weed kill grade [11] | J: common wind-grass, weedkilling efficacy grade [12] | P: birds-eye speedwell, weedkilling efficacy grade [13] | D: crabgrass, weedkilling efficacy grade [14] | a: transplanted rice, effect on crop grade [15] | L: redroot pigweed, weedkilling efficacy grade [16] | E: green foxtail, weedkilling efficacy grade [17] | N: chickweed, weedkilling efficacy grade [18] | c: corn, effect on crop grade [19] | M: fig-leafed goosefoot, weedkilling efficacy grade [20] | also measured
1 | COc1cc(Cl)cc(NC(=O)C(C)(C)N2COCN(c3ccccc3)C2=O)n1 [A-2-32] | 0 (weed kill ratio 5% or less (practically no effect)) | 2 (weed kill ratio 20% or more, less than 40%) | 5 (weed kill ratio 90% or more, (practically complete withering)) | 5 (weed kill ratio 90% or more, (practically complete withering)) | 5 (weed kill ratio 90% or more, (practically complete withering)) | 5 (weed kill ratio 90% or more, (practically complete withering)) | 5 (weed kill ratio 90% or more, (practically complete withering)) | 5 (weed kill ratio 90% or more, (practically complete withering)) | 0 (weed kill ratio 5% or less (practically no effect)) | 5 (weed kill ratio 90% or more, (practically complete withering)) | 5 (weed kill ratio 90% or more, (practically complete withering)) | 5 (weed kill ratio 90% or more, (practically complete withering)) | 5 (weed kill ratio 90% or more, (practically complete withering)) | 5 (weed kill ratio 90% or more, (practically complete withering)) | 4 (weed kill ratio 70% or more, less than 90%) | 3 (weed kill ratio 40% or more, less than 70%) | 5 (weed kill ratio 90% or more, (practically complete withering)) | 4 (weed kill ratio 70% or more, less than 90%) | 1 (weed kill ratio 5% or more, less than 20%) | 5 (weed kill ratio 90% or more, (practically complete withering)) | A (barnyard grass) weedkilling efficacy grade [21]: 5 (weed kill ratio 90% or more, (practically complete withering)); F: barnyard grass, weedkilling efficacy grade [22]: 5 (weed kill ratio 90% or more, (practically complete withering)); K: Indian mallow, weedkilling efficacy grade [23]: 0 (weed kill ratio 5% or less (practically no effect)); g: rapeseed, effect on crop grade [24]: 4 (weed kill ratio 70% or more, less than 90%); B (bulrush) weedkilling efficacy grade [25]: 5 (weed kill ratio 90% or more, (practically complete withering)); f: beet, effect on crop grade [26]: 4 (weed kill ratio 70% or more, less than 90%)
2 | CC(C)(C(=O)Nc1ccn(C(F)F)n1)N1COCN(c2ccccc2)C1=O [A-1-04] | 2 (weed kill ratio 20% or more, less than 40%) | 0 (weed kill ratio 5% or less (practically no effect)) | 4 (weed kill ratio 70% or more, less than 90%) | 5 (weed kill ratio 90% or more, (practically complete withering)) | 5 (weed kill ratio 90% or more, (practically complete withering)) | 5 (weed kill ratio 90% or more, (practically complete withering)) | 4 (weed kill ratio 70% or more, less than 90%) | 2 (weed kill ratio 20% or more, less than 40%) | 0 (weed kill ratio 5% or less (practically no effect)) | 2 (weed kill ratio 20% or more, less than 40%) | 4 (weed kill ratio 70% or more, less than 90%) | 5 (weed kill ratio 90% or more, (practically complete withering)) | 3 (weed kill ratio 40% or more, less than 70%) | 3 (weed kill ratio 40% or more, less than 70%) | 0 (weed kill ratio 5% or less (practically no effect)) | 0 (weed kill ratio 5% or less (practically no effect)) | 3 (weed kill ratio 40% or more, less than 70%) | 4 (weed kill ratio 70% or more, less than 90%) | 0 (weed kill ratio 5% or less (practically no effect)) | 3 (weed kill ratio 40% or more, less than 70%) | A (barnyard grass) weedkilling efficacy grade [21]: 3 (weed kill ratio 40% or more, less than 70%); F: barnyard grass, weedkilling efficacy grade [22]: 2 (weed kill ratio 20% or more, less than 40%); K: Indian mallow, weedkilling efficacy grade [23]: 0 (weed kill ratio 5% or less (practically no effect)); g: rapeseed, effect on crop grade [24]: 4 (weed kill ratio 70% or more, less than 90%); B (bulrush) weedkilling efficacy grade [25]: 4 (weed kill ratio 70% or more, less than 90%); f: beet, effect on crop grade [26]: 3 (weed kill ratio 40% or more, less than 70%)
3 | Cc1nnc(NC(=O)C(C)(C)N2COCN(c3ccccc3)C2=O)s1 [A-1-13] | 0 (weed kill ratio 5% or less (practically no effect)) | 3 (weed kill ratio 40% or more, less than 70%) | 3 (weed kill ratio 40% or more, less than 70%) | 5 (weed kill ratio 90% or more, (practically complete withering)) | 5 (weed kill ratio 90% or more, (practically complete withering)) | 5 (weed kill ratio 90% or more, (practically complete withering)) | 5 (weed kill ratio 90% or more, (practically complete withering)) | 3 (weed kill ratio 40% or more, less than 70%) | 1 (weed kill ratio 5% or more, less than 20%) | 0 (weed kill ratio 5% or less (practically no effect)) | 5 (weed kill ratio 90% or more, (practically complete withering)) | 5 (weed kill ratio 90% or more, (practically complete withering)) | 4 (weed kill ratio 70% or more, less than 90%) | 3 (weed kill ratio 40% or more, less than 70%) | 3 (weed kill ratio 40% or more, less than 70%) | 0 (weed kill ratio 5% or less (practically no effect)) | 3 (weed kill ratio 40% or more, less than 70%) | 3 (weed kill ratio 40% or more, less than 70%) | 0 (weed kill ratio 5% or less (practically no effect)) | 3 (weed kill ratio 40% or more, less than 70%) | A (barnyard grass) weedkilling efficacy grade [21]: 3 (weed kill ratio 40% or more, less than 70%); F: barnyard grass, weedkilling efficacy grade [22]: 3 (weed kill ratio 40% or more, less than 70%); K: Indian mallow, weedkilling efficacy grade [23]: 0 (weed kill ratio 5% or less (practically no effect)); g: rapeseed, effect on crop grade [24]: 4 (weed kill ratio 70% or more, less than 90%); B (bulrush) weedkilling efficacy grade [25]: 5 (weed kill ratio 90% or more, (practically complete withering)); f: beet, effect on crop grade [26]: 1 (weed kill ratio 5% or more, less than 20%)
